In the oligonucleotide strings, read from the 5' end, every base follows the letter of its sugar. An asterisk marks phosphorothioate; unmarked linkages are phosphodiester. Other units and linkages are bracketed, terminal groups are in braces. A string of capitals states the bases alone. e = 2'-O-(2-methoxyethyl) (MOE); [5mC] = 5-methylcytosine; d = 2'-deoxy (DNA)
system: human apolipoprotein B mRNA; assay: Inhibition of human apolipoprotein B mRNA levels in HepG2 cells, quantitative real-time PCR; format: cell-based; settings: HepG2 cells treated with 150 nM of compound; averages from two experiments; quantitative real-time PCR
Procedure, shortened: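 Apolipoprotein B transcript was quantified by one-step TaqMan RT-PCR, normalized to GAPDH or RiboGreen RNA, and expressed as percent inhibition against an untreated-sample standard curve. HepG2 cells were harvested 16-24 h after oligonucleotide exposure, which was delivered with 3.75 μg/mL Lipofectin over 4-7 h at 80% confluency.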

Substance	% INHIB (inhibition of human apolipoprotein B mRNA levels) [%]
271014 (antisense e[5mC]*e[5mC]*e[5mC]*eA*eG*dA*dG*dA*dG*dG*d[5mC]*d[5mC]*dA*dA*dG*e[5mC]*eT*e[5mC]*eT*eG) [compound 271014]	54
281648 (eG*e[5mC]*eA*eG*eG*dT*d[5mC]*d[5mC]*dA*dG*dT*dT*d[5mC]*dA*dT*eA*eT*eG*eT*eG; antisense) [compound 281648]	81
271037 (eA*eA*eG*eA*e[5mC]*d[5mC]*d[5mC]*dA*dG*dA*dA*dT*dG*dA*dA*eT*e[5mC]*e[5mC]*eG*eG; antisense) [compound 271037]	23
281607 (antisense e[5mC]*e[5mC]*eA*eG*eT*dT*d[5mC]*dA*dG*d[5mC]*d[5mC]*dT*dG*d[5mC]*dA*eT*eG*eT*eT*eG) [compound 281607]	84
270987 (antisense e[5mC]*e[5mC]*eT*e[5mC]*e[5mC]*dA*dG*d[5mC]*dT*d[5mC]*dA*dA*d[5mC]*d[5mC]*dT*eT*eG*e[5mC]*eA*eG) [compound 270987]	0
281605 (antisense e[5mC]*eT*eT*e[5mC]*e[5mC]*dA*dA*dG*d[5mC]*d[5mC]*dA*dA*dT*d[5mC]*dT*e[5mC]*eG*eA*eT*eG) [compound 281605]	82
271038 (eG*eT*e[5mC]*eT*eA*d[5mC]*d[5mC]*dT*d[5mC]*dA*dA*dA*dG*d[5mC]*dG*eT*eG*e[5mC]*eA*eG; antisense) [compound 271038]	29
281615 (antisense eT*eA*eG*eA*eT*d[5mC]*dT*d[5mC]*dT*dG*dG*dA*dG*dG*dA*eT*eT*eT*eG*e[5mC]) [compound 281615]	81
281593 (eT*eA*e[5mC]*eT*eG*dA*d[5mC]*dA*dG*dG*dA*d[5mC]*dT*dG*dG*e[5mC]*eT*eG*e[5mC]*eT; antisense) [compound 281593]	93
271036 (eA*eA*eG*eA*eG*dG*d[5mC]*d[5mC]*d[5mC]*dT*d[5mC]*dT*dA*dG*d[5mC]*eT*eG*eT*eA*eA; antisense) [compound 271036]	95
270985 (antisense eT*eT*e[5mC]*e[5mC]*eT*d[5mC]*dT*dT*d[5mC]*dG*dG*d[5mC]*d[5mC]*d[5mC]*dT*eG*eG*e[5mC]*eG*e[5mC]) [compound 270985]	75
271025 (eT*e[5mC]*e[5mC]*eA*eT*dT*d[5mC]*d[5mC]*d[5mC]*dT*dA*dT*dG*dT*d[5mC]*eA*eG*e[5mC]*eA*eT; antisense) [compound 271025]	16
301025 (eT*eA*eT*eG*eT*dG*dA*dA*dA*dG*dT*dT*d[5mC]*dA*dA*eT*eT*eG*eG*eA; antisense) [compound 301025]	76
271028 (e[5mC]*eG*e[5mC]*eA*eG*dG*dT*d[5mC]*dA*dG*d[5mC]*d[5mC]*dT*dG*dA*e[5mC]*eT*eA*eG*eA; antisense) [compound 271028]	98

same assay, conditions: HepG2 cells, 12.5 nM oligonucleotide, normalized to untreated control, average of two experiments

Substance	% inhibition of apolipoprotein B mRNA levels [%]
308658 (antisense AGGTTACCAGCCACATGCAG; 9-10-1 2'-MOE gapmer, phosphorothioate, chemistry not fully specified) [compound 308658]	29

same assay, conditions: HepG2 cells, 37 nM oligonucleotide, normalized to untreated control, average of two experiments

Substance	% inhibition of apolipoprotein B mRNA levels [%]
308658 (antisense AGGTTACCAGCCACATGCAG; 9-10-1 2'-MOE gapmer, phosphorothioate, chemistry not fully specified) [compound 308658]	61

same assay, conditions: HepG2 cells, 75 nM oligonucleotide, normalized to untreated control, average of two experiments

Substance	% inhibition of apolipoprotein B mRNA levels [%]
308658 (antisense AGGTTACCAGCCACATGCAG; 9-10-1 2'-MOE gapmer, phosphorothioate, chemistry not fully specified) [compound 308658]	73

same assay, conditions: HepG2 cells, 150 nM oligonucleotide, normalized to untreated control, average of two experiments

Substance	% inhibition of apolipoprotein B mRNA levels [%]
308658 (antisense AGGTTACCAGCCACATGCAG; 9-10-1 2'-MOE gapmer, phosphorothioate, chemistry not fully specified) [compound 308658]	78

same assay, conditions: HepG2 cells, 300 nM oligonucleotide, normalized to untreated control, average of two experiments

Substance	% inhibition of apolipoprotein B mRNA levels [%]
308658 (antisense AGGTTACCAGCCACATGCAG; 9-10-1 2'-MOE gapmer, phosphorothioate, chemistry not fully specified) [compound 308658]	90

same assay, conditions: HepG2 cells; 50 nm oligonucleotide; variable deoxy gap position

Substance	% INHIB 50 nm [%]
308658 (antisense AGGTTACCAGCCACATGCAG; 9-10-1 2'-MOE gapmer, phosphorothioate, chemistry not fully specified) [compound 308658]	86
308634 (AGGTTACCAGCCACATGCAG; 10-10-0 MOE gapmer, phosphorothioate, chemistry not fully specified) [compound 308634]	45

same assay, conditions: HepG2 cells; 150 nm oligonucleotide; variable deoxy gap position

Substance	% INHIB 150 nm [%]
308658 (antisense AGGTTACCAGCCACATGCAG; 9-10-1 2'-MOE gapmer, phosphorothioate, chemistry not fully specified) [compound 308658]	78
308634 (AGGTTACCAGCCACATGCAG; 10-10-0 MOE gapmer, phosphorothioate, chemistry not fully specified) [compound 308634]	67

same assay, conditions: HepG2 cells; human apolipoprotein B mRNA; oligonucleotides targeting genomic sequence SEQ ID NO 334; averages from two experiments

Substance	% INHIB [%]
301193 (antisense eA*eG*e[5mC]*eT*e[5mC]*dA*dT*dT*dG*d[5mC]*d[5mC]*dT*dA*d[5mC]*dA*eA*eA*eA*eT*eG) [compound 301193]	31
301143 (eT*eT*eA*e[5mC]*e[5mC]*dA*dT*dA*dT*d[5mC]*d[5mC]*dT*dG*dA*dG*eA*eG*eT*eT*eT; antisense) [compound 301143]	55
301160 (eA*e[5mC]*e[5mC]*eT*eT*dG*dT*dG*dT*dG*dT*d[5mC]*dT*d[5mC]*dA*e[5mC]*eT*e[5mC]*eA*eA; antisense) [compound 301160]	49
301196 (antisense e[5mC]*e[5mC]*eG*eG*e[5mC]*d[5mC]*dA*dT*d[5mC]*dG*d[5mC]*dT*dG*dA*dA*eA*eT*eG*eA*eA) [compound 301196]	54
301124 (eT*eT*eT*e[5mC]*e[5mC]*dA*dA*dT*dG*dA*d[5mC]*d[5mC]*dT*dG*d[5mC]*eA*eT*eT*eG*eA; antisense) [compound 301124]	48
301071 (e[5mC]*eA*e[5mC]*eT*eT*dG*dT*dT*dG*dG*dA*d[5mC]*dA*dG*dT*e[5mC]*eA*eT*eT*e[5mC]; antisense) [compound 301071]	48
301190 (antisense eA*eG*eA*e[5mC]*eA*d[5mC]*dA*dT*dA*d[5mC]*d[5mC]*dA*dT*dA*dA*eT*eG*e[5mC]*e[5mC]*eA) [compound 301190]	22
301073 (e[5mC]*eT*eG*eT*eT*d[5mC]*dT*d[5mC]*d[5mC]*dA*d[5mC]*d[5mC]*d[5mC]*dA*dT*eA*eT*e[5mC]*eA*eG; antisense) [compound 301073]	37
301211 (antisense e[5mC]*eT*e[5mC]*eT*e[5mC]*dT*dG*dA*dA*dA*dA*dA*dT*dA*dT*eA*e[5mC]*e[5mC]*e[5mC]*eT) [compound 301211]	17
301069 (eG*eG*e[5mC]*eT*eG*dA*dA*dG*d[5mC]*d[5mC]*d[5mC]*dA*dT*dG*d[5mC]*eT*eG*eA*e[5mC]*eT; antisense) [compound 301069]	44
301149 (eA*eG*e[5mC]*eA*eT*dA*dT*dT*dT*dT*dG*dA*dT*dG*dA*eG*e[5mC]*eT*eG*eA; antisense) [compound 301149]	44
301134 (e[5mC]*e[5mC]*eA*eA*eG*d[5mC]*d[5mC]*dA*dA*dT*d[5mC]*dT*dG*dA*dG*eA*eA*eA*eG*eA; antisense) [compound 301134]	25
301113 (antisense eA*eG*eG*eT*eG*d[5mC]*dA*dA*dG*dA*dT*dG*dT*dT*d[5mC]*e[5mC]*eT*e[5mC]*eT*eG) [compound 301113]	46
301195 (antisense eG*eA*eA*eT*eT*dG*dA*dG*dA*d[5mC]*dA*dA*d[5mC]*dT*dT*eG*eA*eT*eT*eT) [compound 301195]	26
301176 (antisense eT*e[5mC]*eT*eG*eG*dA*dG*dG*d[5mC]*dT*d[5mC]*dA*dG*dA*dA*eA*e[5mC]*eA*eT*eG) [compound 301176]	57
301076 (e[5mC]*e[5mC]*eA*eG*eT*dA*dT*dT*dT*d[5mC]*dA*d[5mC]*dG*d[5mC]*d[5mC]*eA*eA*eT*e[5mC]*e[5mC]; antisense) [compound 301076]	36
301108 (antisense e[5mC]*eA*eT*eT*eA*dG*dA*dT*dA*d[5mC]*d[5mC]*dT*dG*dG*dA*e[5mC]*eA*e[5mC]*e[5mC]*eT) [compound 301108]	29
301209 (antisense eA*eT*eA*eA*eA*dT*dA*dA*dT*dA*dG*dT*dG*d[5mC]*dT*eG*eA*eT*eG*eG) [compound 301209]	39
301077 (eG*eG*e[5mC]*eA*eG*dG*dA*dG*dG*dA*dA*d[5mC]*d[5mC]*dT*d[5mC]*eG*eG*eG*e[5mC]*eA; antisense) [compound 301077]	55

same assay, conditions: Table 1; HepG2 cells, 150 nM; averages from two experiments

Substance	% INHIB [%]
147818 (antisense eA*eG*eT*eG*eA*dT*dG*dG*dA*dA*dG*d[5mC]*dT*dG*d[5mC]*eG*eA*eT*eA*e[5mC]) [compound 147818]	30
147826 (antisense eT*e[5mC]*eA*eG*eG*dG*dT*dG*dA*dG*d[5mC]*d[5mC]*d[5mC]*dT*dG*eT*eG*eT*eG*eT) [compound 147826]	80
147790 (antisense eT*eG*eT*eG*e[5mC]*dT*dA*d[5mC]*d[5mC]*dA*dT*d[5mC]*d[5mC]*d[5mC]*dA*eT*eA*e[5mC]*eT*eT) [compound 147790]	33
147784 (antisense e[5mC]*eA*eG*e[5mC]*eG*d[5mC]*d[5mC]*dA*dG*d[5mC]*dA*dG*d[5mC]*dG*d[5mC]*e[5mC]*eA*eG*e[5mC]*eA) [compound 147784]	70
147833 (antisense eA*eT*eG*eA*eT*dA*d[5mC]*dA*d[5mC]*dA*dA*dT*dA*dA*dA*eG*eA*e[5mC]*eT*e[5mC]) [compound 147833]	25
147781 (antisense eA*e[5mC]*e[5mC]*eG*eA*dG*dA*dA*dG*dG*dG*d[5mC]*dA*d[5mC]*dT*e[5mC]*eA*eG*e[5mC]*e[5mC]) [compound 147781]	35

same assay, conditions: Table 11 gene walk; HepG2 cells, 50 nM; averages from two experiments

Substance	% INHIB 50 nm [%]
308611 (eT*eT*eA*e[5mC]*e[5mC]*dA*dG*d[5mC]*d[5mC]*dA*d[5mC]*dA*dT*dG*d[5mC]*eA*eG*e[5mC]*eT*eT; antisense) [compound 308611]	59

same assay, conditions: Table 11 gene walk; HepG2 cells, 150 nM; averages from two experiments

Substance	% INHIB 150 nm [%]
308611 (eT*eT*eA*e[5mC]*e[5mC]*dA*dG*d[5mC]*d[5mC]*dA*d[5mC]*dA*dT*dG*d[5mC]*eA*eG*e[5mC]*eT*eT; antisense) [compound 308611]	95

— US7803930B2, “Antisense modulation of apolipoprotein B-expression” (Isis Pharmaceuticals, Inc., priority 2002, dated 2010)
